# Assays:
# Format in all cases: functional
# Mus musculus [1] = species: Mus musculus; test: Inhibitory effect on nitric oxide production in lipopolysaccharide activated mouse peritoneal macrophages at 3 uM
# Mus musculus [2] = species: Mus musculus; test: Inhibitory concentration on nitric oxide production in lipopolysaccharide-activated mouse peritoneal macrophages
# Mus musculus [3] = species: Mus musculus; test: Inhibitory effect on nitric oxide production in lipopolysaccharide activated mouse peritoneal macrophages at 10 uM
Structure (SMILES),inhibition at 3 µM (Mus musculus [1]),IC50 (Mus musculus [2]),inhibition at 10 µM (Mus musculus [3])
C[C@@]12CCC(=O)C=C1[C@](C)(O)[C@H](O)CC2 [OXYPHYLLENONE B],-8.1%,> 100 µM,0.4%
CNC(=N)NCCC[C@H](N)C(=O)O [TILARGININE],2%,–,–
CC(C)[C@H]1CCC(=O)C2=C1[C@H](O)[C@](C)(O)CC2 [OXYPHYLLENODIOL B],-4.2%,> 100 µM,-0.4%
C[C@@]12CCC(=O)C=C1[C@@](C)(O)[C@H](O)CC2 [OXYPHYLLENONE A],1.6%,35 µM,-2.9%
CC(C)[C@@H]1CCC(=O)C2=C1[C@H](O)[C@](C)(O)CC2 [OXYPHYLLENODIOL A],11.8%,28 µM,–
